From ChEMBL document CHEMBL2401697, “Indazoles as potential c-Met inhibitors: design, synthesis and molecular docking studies” (Eur J Med Chem, 2013)

test system: MKN-45; assay: Cytotoxicity against human MKN45 cells after 1 hr by Western blotting analysis; conditions: MKN-45, 1 h

Q: `CC(C)(C)[Si](C)(C)O[C@H]1CC[C@H](n2cc(-c3ccc4cnn(Cc5ccc6ncccc6c5)c4c3)cn2)CC1` was tested. Which IC50 did it give?
A: Its IC50 is 11 µM.

Q: With `c1cnc2ccc(Cn3cc4ccc(-c5cnn(CCOC6CCCCO6)c5)cc4n3)cc2c1` (stereo not given) as the molecule, how does the IC50 read?
A: Its IC50 is 12 µM.

Q: `O[C@H]1CC[C@H](n2cc(-c3ccc4cnn(Cc5ccc6ncccc6c5)c4c3)cn2)CC1` was tested. Which IC50 did it give?
A: Its IC50 is 5.45 µM.

Q: Which IC50 does the source give for `Cn1cc(-c2ccc3cnn(Cc4ccc5ncccc5c4)c3c2)cn1` here?
A: The IC50 was 12.9 µM.

Q: `c1cnc2ccc(Cn3ncc4ccc(-c5cnn(CCOC6CCCCO6)c5)cc43)cc2c1` (stereo not given) was tested. Which IC50 did it give?
A: Its IC50 is 14 µM.

Q: Which IC50 does the source give for `CC(C)(C)[Si](C)(C)O[C@H]1CC[C@H](n2cc(-c3ccc4cn(Cc5ccc6ncccc6c5)nc4c3)cn2)CC1` here?
A: Its IC50 is 1300 µM.

Q: How did the IC50 turn out when `OCCn1cc(-c2ccc3cnn(Cc4ccc5ncccc5c4)c3c2)cn1` was run?
A: Its IC50 is 6.72 µM.

Q: `Cn1cc(-c2ccc3cn(Cc4ccc5ncccc5c4)nc3c2)cn1` was tested. Which IC50 did it give?
A: Its IC50 is 106 µM.

Q: For `OCCn1cc(-c2ccc3cn(Cc4ccc5ncccc5c4)nc3c2)cn1`, which IC50 is on record?
A: Its IC50 is 110 µM.

Q: Which IC50 does the source give for `O[C@H]1CC[C@H](n2cc(-c3ccc4cn(Cc5ccc6ncccc6c5)nc4c3)cn2)CC1` here?
A: Its IC50 is 13.4 µM.
